This is an account of results in US20240300948A1, “Heterocyclic Compounds As Kinase Inhibitors” (Incyte Corporation, priority 2023, published 2024).

The IC50 is the concentration at which inhibition is half-maximal.

For assay [1], the target named is T1, pseudo-kinase domain (JH2, amino-acids 536-812 with 3 surface mutations W659A, W777A, F794H) of human Wild Type JAK2 (Homo sapiens, UniProt O60674, F794H/W659A/W777A).
T1 construct: pseudo-kinase domain (JH2, amino-acids 536-812 with 3 surface mutations W659A, W777A, F794H); His (C); Avi (biotinylated) (C); purchased BPS Bioscience 79463; host or cells: baculovirus expression system
As to the kind of experiment: JAK2 LanthaScreen JH2-WT binding assay. As to conditions: 50 nM tracer, 1 hour at 25° C., read-out: JH2 BIND WT IC50. An outline of the steps: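 IC50 values derive from four-parameter fits of LanthaScreen signal, measuring displacement of 50 nM fluorescent tracer from 0.145 nM biotinylated, baculovirus-expressed JH2 (536-812) detected by 0.25 nM streptavidin-Tb. Incubation lasts 1 hour at 25° C, pH 7.5.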
(In general: In TR-FRET formats the signal depends on donor and acceptor labels being close together.)

Assay [2] has as its target T2, pseudo-kinase domain (JH2, amino-acids 536-812 with 3 surface mutations W659A, W777A, F794H) of human V617F mutant JAK2 (Homo sapiens, UniProt O60674, F794H/V617F/W659A/W777A).
T2 construct: pseudo-kinase domain (JH2, amino-acids 536-812 with 3 surface mutations W659A, W777A, F794H); His (C); Avi (biotinylated) (C); purchased BPS Bioscience 79498; host or cells: baculovirus expression system
As to the kind of experiment: JAK2 LanthaScreen JH2-V617F binding assay. As to conditions: 50 nM tracer, 1 hour at 25° C., read-out: JH2 BIND V617F IC50. An outline of the steps:
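TR-FRET tracer displacement: 0.26 nM protein, 50 nM tracer, 0.25 nM SA-Tb, 50 mM Tris pH 7.5, 10 mM MgCl2, 5 mM DTT; 1 h, 25° C. NSB = 2 mM ATP. IC50, 4-parameter curve.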

Assay [3] concerns the target T3, catalytic domain (JH1, amino acids 826-1132) of human JAK2 (Homo sapiens, UniProt O60674).
T3 construct: catalytic domain (JH1, amino acids 826-1132) of human JAK2; FLAG (N); purchased Carna Biosciences 08-445-20N; host or cells: baculovirus expression system
Description: JAK2 LanthaScreen JH1 binding assay. As to conditions: 50 nM tracer, 2 hours at 25° C., read-out: JH1 BIND IC50. An outline of the steps: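 Binding of compounds to biotinylated, FLAG-tagged human JAK2 JH1 (aa 826-1132; 1.5 nM) was measured by LanthaScreen TR-FRET with 50 nM fluorescent tracer and 0.5 nM streptavidin-Tb, in pH 7.5 Tris buffer. Non-specific binding was defined with 2 mM ATP. After 2 h at 25 °C, IC50 was fitted from four-parameter dose-response curves.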

T3 sequence (O60674 826-1132): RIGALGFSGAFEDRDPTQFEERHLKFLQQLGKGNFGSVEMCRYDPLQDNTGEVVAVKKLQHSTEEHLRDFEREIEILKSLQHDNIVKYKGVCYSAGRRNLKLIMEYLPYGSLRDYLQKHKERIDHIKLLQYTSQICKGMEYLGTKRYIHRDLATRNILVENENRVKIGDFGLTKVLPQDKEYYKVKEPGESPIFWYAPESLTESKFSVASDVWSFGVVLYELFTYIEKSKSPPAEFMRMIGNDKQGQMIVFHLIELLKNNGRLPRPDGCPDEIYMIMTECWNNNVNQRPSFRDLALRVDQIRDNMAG
T1 sequence (O60674 536-812 W659A/W777A/F794H): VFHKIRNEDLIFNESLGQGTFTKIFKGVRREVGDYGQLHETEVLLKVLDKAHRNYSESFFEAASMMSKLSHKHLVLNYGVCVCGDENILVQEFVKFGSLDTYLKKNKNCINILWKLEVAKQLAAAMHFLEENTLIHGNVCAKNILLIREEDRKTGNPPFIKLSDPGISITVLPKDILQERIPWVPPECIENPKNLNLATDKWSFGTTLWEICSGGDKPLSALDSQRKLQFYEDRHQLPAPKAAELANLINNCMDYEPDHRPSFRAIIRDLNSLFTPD
T2 sequence (O60674 536-812 V617F/W659A/W777A/F794H): as the sequence (O60674 536-812 W659A/W777A/F794H) above, with V82F counted along it

Consider `COC(=O)N[C@H]1C[C@@H](N2C(=O)NCc3cnc4[nH]c(-c5cnn(C)c5)c(-c5ccc6c(cnn6C(C)C)c5)c4c32)C1` [Example 4, Methyl ((1s,3s)-3-(9-(1-isopropyl-1H-indazol-5-yl)-8-(1-methyl-1H-pyrazol-4-yl)-2-oxo-2,3,4,7-tetrahydro-1H-pyrrolo[3′,2′:5,6]pyrido[4,3-d]pyrimidin-1-yl)cyclobutyl) carbamate], for which the IC50 is 10 to 100 nM in assay [1], 10 to 100 nM in assay [2] and greater than 1000 nM in assay [3].
Consider `CC(C)n1ncc2cc(-c3c(-c4cnn(C)c4)[nH]c4ncc5c(c34)N([C@H]3C[C@H](NS(C)(=O)=O)C3)C(=O)NC5)ccc21` [Example 3, N-((1r,3r)-3-(9-(1-Isopropyl-1H-indazol-5-yl)-8-(1-methyl-1H-pyrazol-4-yl)-2-oxo-2,3,4,7-tetrahydro-1H-pyrrolo[3′,2′:5,6]pyrido[4,3-d]pyrimidin-1-yl)cyclobutyl) methan esulfonamide], for which the IC50 was no more than 10 nM in assay [1], no more than 10 nM in assay [2] and 10 to 100 nM in assay [3].
In the case of `CC(C)n1ncc2cc(-c3c(-c4cnn(C)c4)[nH]c4ncc5c(c34)N(C3CCC4(CC3)CN(C(=O)NCC(F)F)C4)C(=O)NC5)ccc21` [Example 19, N-(2,2-Difluoroethyl)-7-(9-(1-isopropyl-1H-indazol-5-yl)-8-(1-methyl-1H-pyrazol-4-yl)-2-oxo-2,3,4,7-tetrahydro-1H-pyrrolo[3′,2′:5,6]pyrido[4,3-d]pyrimidin-1-yl)-2-azaspiro[3.5] nonane-2-carboxamide], the half-maximal inhibitory concentration (IC50) in assay [1] lay within 10 to 100 nM; in assay [2], 10 to 100 nM; in assay [3], 100 to 500 nM.
Regarding `COC(=O)N[C@@H]1CC[C@@H](N2C(=O)NCc3cnc4[nH]c(-c5cnn(C)c5)c(-c5cccc(F)c5)c4c32)C1` [Example 31, Methyl ((1R,3R)-3-(9-(3-fluorophenyl)-8-(1-methyl-1H-pyrazol-4-yl)-2-oxo-2,3,4,7-tetrahydro-1H-pyrrolo[3′,2′:5,6]pyrido[4,3-d]pyrimidin-1-yl)cyclopentyl) carbamate], the IC50 is 10 to 100 nM in assay [1], 100 to 500 nM in assay [2] and greater than 1000 nM in assay [3].
The matching figures for `CC(C)COC(=O)N[C@@H]1CC[C@@H](N2C(=O)NCc3cnc4[nH]c(-c5cnn(C)c5)c(-c5ccc6c(cnn6C(C)C)c5)c4c32)C1` [Example 12, Isobutyl ((1R,3R)-3-(9-(1-isopropyl-1H-indazol-5-yl)-8-(1-methyl-1H-pyrazol-4-yl)-2-oxo-2,3,4,7-tetrahydro-1H-pyrrolo[3′,2′:5,6]pyrido[4,3-d]pyrimidin-1-yl)cyclopentyl) carbamate]: 10 to 100 nM, 10 to 100 nM and greater than 1000 nM.
As to `COC(=O)N[C@@H]1CC[C@@H](n2c(=O)[nH]c(=O)c3cnc4[nH]c(-c5cnn(C)c5)c(-c5ccc6c(cnn6C(C)C)c5)c4c32)C1` [Example 39, Methyl ((1R,3R)-3-(9-(1-isopropyl-1H-indazol-5-yl)-8-(1-methyl-1H-pyrazol-4-yl)-2,4-dioxo-2,3,4,7-tetrahydro-1H-pyrrolo[3′,2′:5,6]pyrido[4,3-d]pyrimidin-1-yl)cyclopentyl)carbamate], the results for the IC50 in assay [1], in assay [2] and in assay [3] were 10 to 100 nM, 10 to 100 nM and greater than 1000 nM, respectively.
Regarding `COC(=O)N[C@@H]1CC[C@@H](N2C(=O)NCc3cnc4[nH]c(-c5cnn(C)c5)c(-c5ccc(OC)cc5)c4c32)C1` [Example 28, Methyl ((1R,3R)-3-(9-(4-methoxyphenyl)-8-(1-methyl-1H-pyrazol-4-yl)-2-oxo-2,3,4,7-tetrahydro-1H-pyrrolo[3′,2′:5,6]pyrido[4,3-d]pyrimidin-1-yl)cyclopentyl)carbamate], the IC50 in assay [1] was 10 to 100 nM; in assay [2] it was 10 to 100 nM; in assay [3] it was greater than 1000 nM.
